In patent publication US4446133A, “1-Phenyl-4-carbamoyl piperazine compounds, process for preparation thereof and utilizations thereof” (Misuitoatsu Chemicals, Inc., priority 1980, dated 1984):
Structures can show the parent of a compound that is named as a salt.

Assays:
delayed hypersensitivity = test: Test 1: Test of Reinforcement of Delayed Hypersensitivity (picryl chloride); type: in vivo, ICR male mice
Excerpt: This system was used for the test of reinforcement of delayed hypersensitivity.
One group of eight ICR male mice, each having a body weight of about 30 g, were used for the test.
Sensitization was effected by coating a 7% solution of picryl chloride in a 4/1 mixture of olive oil and acetone on the shaved abdomen of the mouse.
Simultaneously with sensitization, a solution or suspension of the compound of the present invention in a 0.2% solution of carboxymethyl cellulose in a physiological saline was orally administered to the mouse at a dose of 50 mg per Kg of the body weight. To the control group, a 0.2% carboxymethyl cellulose solution in a physiological saline was similarly administered.
The delayed hypersensitivity was challenged 7 days after sensitization by gripping the ear of the mouse by a forceps wrapped with a felt impregnated with a 1% solution of picryl chloride in olive oil and coating the ear with the solution. The thickness of the ear was measured before challenging and 24 hours after challenging and the ratio of increase of the thickness (average value of both the ears in eight mice±standard deviation) was obtained as shown in Table 1.
For comparison, the test was similarly carried out by using Levamisole hydrochloride, and the obtained results are shown in Table 1. F.t tests were carried out. The group in which the test result was significant at a level of P<0.05 was marked by *, and the group in which the test result was significant at a level of P<0.01 was marked by **.

Sarcoma 180 [1] = test: Test 5: Test of Antitumor Effect to Sarcoma 180 by Subcutaneous Administration; type: in vivo, ICR female mice; conditions: 20 mg/kg subcutaneous
Method: To the control group, a physiological saline solution was similarly administered. […] The diameter D (mm) of the tumor was measured, and the average value and the number N of the living mice were determined to obtain results shown in Table 4.

adjuvant arthritis = test: Test 2: Adjuvant Arthritis Test; type: in vivo, SD male rats; conditions: 5 mg/kg subcutaneous, 9 times, left hind leg, * P<0.05, ** P<0.01; for Swelling Ratio (average value ± standard variation), 15 days: control 84.4 ± 9.0; for Swelling Ratio (average value ± standard variation), 18 days: control 103.2 ± 9.7; for Swelling Ratio (average value ± standard variation), 21 days: control 107.5 ± 13.3
EL-4 leukemic cells = test: Test 3: In-Vitro Test of Inhibition of Growth of Cancer Cell by Macrophage; type: cell-based; conditions: for Inhibition of take-in of 3H-thymidine by EL-4 cells / activation of macrophage, in words: 8 mg/kg intraperitoneal; for Take-in Ratio of 3H-thymidine (average value): 8 mg/kg intraperitoneal to mice, macrophages collected after 4 days, mixed with EL-4 cells, control 80.2
Method: The results of the test of the action of the effective ingredient of the present invention on the macrophage will now be described with reference to the following Test 3. More specifically, the separated macrophage and EL-4 leukemic cell were mixed and cultured, and ^3 H-thymidine was added to a culture medium and the quantity of ^3 H-thymidine incorporated into the EL-4 cell was determined to examine the activity of the macrophage. When the macrophage is activated by administration of the effective ingredient of the present invention, inhibition of the growth of EL-4 cell, that is, phagocytosis of the cancer cell by the macrophage, is observed. Accordingly, if the take-in amount of ^3 H-thymidine is measured and this amount is reduced, it is confirmed that the macrophage has been activated. […] The dose was 8 mg per Kg of the body weight. To the control group, a physiological saline solution was similarly administered. After passage of 4 days, exuded abdominal cells were collected and deposited on a plastic Petri dish to collect macrophages. Then, 1×10^6 of so obtained macrophages and 1×10^5 of EL-4 leukemic cells of C57 BL/6J mouse were mixed and cultured in an RPMI 1640 culture medium to which 10% of bovine embryo serum was added (at 37° C. in the presence of 5% of CO2) for 24 hours. Then, 0.1μ Ci of ^3 H-thymidine was added and culturing was further conducted for 16 hours. Cells were collected on a filter paper from the culture medium and the amount of ^3 H-thymidine taken in was determined by a liquid scintillation counter. […] For comparison, the test was similarly carried out by using Levamisol hydrochloride.

Sarcoma 180 [2] = test: Test 4: Test of Antitumor Effect to Sarcoma 180 by Oral Administration; type: in vivo, ICR female mice
Method: To the control group, a physiological saline solution was similarly administered. The dose of the compound was 100 mg per Kg of the body weight. The diameter D (mm) of the tumor was measured, and the average value and the number N of the living mice were determined to obtain results shown in Table 4.

[3] = 50 mg/kg oral, simultaneously with sensitization, 24 h after challenge, control 29.6 ± 1.9, * P<0.05, ** P<0.01

SMILES: c1ccc([C@H]2CN3CCSC3=N2)cc1 [Levamisole hydrochloride, reference compound]
- Ratio of Increase of Ear Thickness (average value ± standard variation) (delayed hypersensitivity; mouse, in vivo): 35.6 ± 2.4%
- Carcinostatic activity on Sarcoma 180, in words (Sarcoma 180 [1]): no substantial carcinostatic activity
- D: average diameter of tumor, 2 weeks (Sarcoma 180 [1]; 2 weeks, control 10.8): 7.7 mm
- D: average diameter of tumor, 4 weeks (Sarcoma 180 [1]; 4 weeks, control 16.6): 14.8 mm
- D: average diameter of tumor, 6 weeks (Sarcoma 180 [1]; 6 weeks, control 20.3): 14.4 mm
- D: average diameter of tumor, 8 weeks (Sarcoma 180 [1]; 8 weeks, control 31.3): 30.2 mm
- D: average diameter of tumor, 10 weeks (Sarcoma 180 [1]; 10 weeks, control 40.5): 31.6 mm
- N: number of living mice, 0 weeks (Sarcoma 180 [1]; of 6 mice, 0 weeks, control 6): 6
- N: number of living mice, 2 weeks (Sarcoma 180 [1]; of 6 mice, 2 weeks, control 6): 6
- N: number of living mice, 4 weeks (Sarcoma 180 [1]; of 6 mice, 4 weeks, control 6): 6
- N: number of living mice, 6 weeks (Sarcoma 180 [1]; of 6 mice, 6 weeks, control 6): 6
- N: number of living mice, 8 weeks (Sarcoma 180 [1]; of 6 mice, 8 weeks, control 4): 3
- N: number of living mice, 10 weeks (Sarcoma 180 [1]; of 6 mice, 10 weeks, control 1): 2
- Swelling Ratio (average value ± standard variation), 15 days (adjuvant arthritis): 65.2 ± 5.9%
- Swelling Ratio (average value ± standard variation), 18 days (adjuvant arthritis): 69.3 ± 7.1%
- Swelling Ratio (average value ± standard variation), 21 days (adjuvant arthritis): 80.7 ± 9.6%
- Inhibition of take-in of 3H-thymidine by EL-4 cells / activation of macrophage, in words (EL-4 leukemic cells): does not exhibit such action
- Take-in Ratio of 3H-thymidine (average value) (EL-4 leukemic cells): 49.0%
- Inhibition of take-in of 3H-thymidine by EL-4 cells / activation of macrophage, in words (EL-4 leukemic cells; listed as Levamisole): hardly exhibits such action
- D: average diameter of tumor, 2 weeks (Sarcoma 180 [2]; 100 mg/kg oral once a day, 10 days, 2 weeks, control 10.6): 10.2 mm
- D: average diameter of tumor, 4 weeks (Sarcoma 180 [2]; 100 mg/kg oral once a day, 10 days, 4 weeks, control 15.2): 16.2 mm
- D: average diameter of tumor, 6 weeks (Sarcoma 180 [2]; 100 mg/kg oral once a day, 10 days, 6 weeks, control 22.4): 20.7 mm
- D: average diameter of tumor, 8 weeks (Sarcoma 180 [2]; 100 mg/kg oral once a day, 10 days, 8 weeks, control 31.5): 29.6 mm
- D: average diameter of tumor, 10 weeks (Sarcoma 180 [2]; 100 mg/kg oral once a day, 10 days, 10 weeks, control 37.6): 28.1 mm
- Carcinostatic action on Sarcoma 180, in words (Sarcoma 180 [2]; 100 mg/kg oral, repeated): no substantial carcinostatic action was observed
- N: number of living mice, 0 weeks (Sarcoma 180 [2]; 100 mg/kg oral, of 6 mice, 0 weeks, control 6): 6
- N: number of living mice, 2 weeks (Sarcoma 180 [2]; 100 mg/kg oral, of 6 mice, 2 weeks, control 6): 6
- N: number of living mice, 4 weeks (Sarcoma 180 [2]; 100 mg/kg oral, of 6 mice, 4 weeks, control 6): 6
- N: number of living mice, 6 weeks (Sarcoma 180 [2]; 100 mg/kg oral, of 6 mice, 6 weeks, control 6): 6
- N: number of living mice, 8 weeks (Sarcoma 180 [2]; 100 mg/kg oral, of 6 mice, 8 weeks, control 5): 6
- N: number of living mice, 10 weeks (Sarcoma 180 [2]; 100 mg/kg oral, of 6 mice, 10 weeks, control 1): 3

SMILES: CCN(CC)C(=O)N1CCN(c2ccccc2)CC1 [drawing 11]
- Ratio of Increase of Ear Thickness (average value ± standard variation) (delayed hypersensitivity; [3]): 44.0 ± 5.0%

SMILES: CCN(CC)C(=O)N1CCN(c2ccc(Cl)cc2)CC1 [drawing 12]
- Ratio of Increase of Ear Thickness (average value ± standard variation) (delayed hypersensitivity; [3]): 42.3 ± 3.7%

SMILES: CCN(CC)C(=O)N1CCN(c2ccc(OC)cc2)CC1 [drawing 13]
- Ratio of Increase of Ear Thickness (average value ± standard variation) (delayed hypersensitivity; [3]): 40.1 ± 4.2%

SMILES: CCOC(=O)c1ccc(N2CCN(C(=O)N(CC)CC)CC2)cc1 [drawing 14]
- Ratio of Increase of Ear Thickness (average value ± standard variation) (delayed hypersensitivity; [3]): 39.1 ± 4.0%

SMILES: CCN(CC)C(=O)N1CCN(c2ccc(C(=O)O)cc2)CC1 [drawing 15]
- Ratio of Increase of Ear Thickness (average value ± standard variation) (delayed hypersensitivity; [3]): 37.7 ± 3.0%

SMILES: CCN(CC)C(=O)N1CCN(c2ccc(C(C)=O)cc2)CC1 [drawing 16]
- Ratio of Increase of Ear Thickness (average value ± standard variation) (delayed hypersensitivity; [3]): 38.8 ± 3.5%

SMILES: CCN(CC)C(=O)N1CCN(c2ccc(C(C)=O)cc2)CC1 [drawing 22]
- Swelling Ratio (average value ± standard variation), 15 days (adjuvant arthritis): 61.4 ± 10.4%
- Swelling Ratio (average value ± standard variation), 18 days (adjuvant arthritis): 62.2 ± 8.8%
- Swelling Ratio (average value ± standard variation), 21 days (adjuvant arthritis): 68.4 ± 12.0%

SMILES: CCN(CC)C(=O)N1CCN(c2ccccc2)CC1 [drawing 23]
- Take-in Ratio of 3H-thymidine (average value) (EL-4 leukemic cells): 24.4%

SMILES: CCN(CC)C(=O)N1CCN(c2ccc(Cl)cc2)CC1 [drawing 24]
- Take-in Ratio of 3H-thymidine (average value) (EL-4 leukemic cells): 20.5%

SMILES: CCN(CC)C(=O)N1CCN(c2ccc(OC)cc2)CC1 [drawing 25]
- Take-in Ratio of 3H-thymidine (average value) (EL-4 leukemic cells): 27.7%

SMILES: CCOC(=O)c1ccc(N2CCN(C(=O)N(CC)CC)CC2)cc1 [drawing 26]
- Take-in Ratio of 3H-thymidine (average value) (EL-4 leukemic cells): 30.3%

SMILES: CCN(CC)C(=O)N1CCN(c2ccc(C(=O)O)cc2)CC1 [drawing 27]
- Take-in Ratio of 3H-thymidine (average value) (EL-4 leukemic cells): 29.8%

SMILES: CCN(CC)C(=O)N1CCN(c2ccc(C(C)=O)cc2)CC1 [drawing 28]
- Take-in Ratio of 3H-thymidine (average value) (EL-4 leukemic cells): 27.4%
